Laboratory results reported in US12534436B2, “Disubstituted adamantyl derivative or pharmaceutically acceptable salt thereof, and pharmaceutical composition for suppressing cancer growth comprising same as active ingredient” (ONECUREGEN CO., LTD., priority 2020, dated 2026).
pIC50: −log10 of the molar value.

Tests used:
[1] = system: HIF-1 (HRE-dependent luciferase reporter); experiment: HRE-luciferase assay, screening of HIF-1 inhibitors in HCT116 cells; type: cell-based, human; conditions: Homo sapiens, HCT-116; HCT116 cells stably expressing HRE-dependent luciferase reporter, hypoxic conditions, 12 hours; means of three experiments
Protocol: HCT116 cells stably expressing the HRE-dependent luciferase reporter were treated with the disubstituted adamantyl derivative prepared in the above example under hypoxic conditions for 12 hours before measuring luciferase activity.
(§1) In HCT116 cells treated with disubstituted adamantyl derivatives, luciferase activity was investigated using HRE-luciferase assay. The HRE-luciferase reporter assay was performed as previously described using the luciferase assay system (Promega, Madison, WI, USA) according to the manufacturer's instructions (Naik, R. et al. Synthesis and Structure-Activity Relationship of (E)Phenoxyacrylic Amide Derivatives as Hypoxia-Inducible Factor (HIF) 1α Inhibitors. J. Med. Chem. 55, 10564-1057 (2012)). Luciferase activity was measured using a Victor X light luminescence reader (PerkinElmer, Boston, MA, USA).

various cancer cells = experiment: Cell viability by methylene blue colorimetric assay, various cancer cells; type: cell-based; conditions: Homo sapiens; range over the cancer cell lines, methylene blue assay (FIG. 1B); read-out: GI50, proliferation of various cancer cells
Protocol: (§2) Among the newly synthesized adamantyl compounds, it was evaluated how compound 21c (LW1564, Compound 21-3), FIG. 1A) affected proliferation suppression of various cancer cells. Human breast cancer cells (MCF7), human cervical cancer cells (HeLa), human colorectal cancer cells (HCT116, HCT15, LoVo, SW480, SW620 and WiDr), human fibrosarcoma cells (HT1080), human gastric cancer cells (NCI-N87, NUGC3 and SNU484), human liver cancer cells (HepG2, HT17, Huh7, SHJ1 and SK-Hep1), human lung cancer cells (A549 and H1299), human pancreatic cancer cells (AsPC1 and MIA-PaCa2) and normal lung fibroblasts (CCD-34Lu and WI-38) were purchased from the American Type Culture Collection (Manassas, Virginia, USA) or KRIBB Cell Line Bank (Daejeon). For cell culture, cells were cultured in a DMEM medium (Gibco, Grand Island, New York, USA) supplemented with 5% (v/v) fetal bovine serum (WelGENE, Daegu, Korea) and 100 U/ml penicillin and 100 μg/ml streptomycin (Gibco). Cells were maintained at 37° C. in a humidified incubator with 5% CO2, and hypoxia and a multi-gas incubator (Sanyo, Osaka, Japan) was adjusted to 1% O2, 94% N2 and 5% CO2. Cell viability was determined by methylene blue colorimetric assay as described in the “Chou, T. C. […] The dye was eluted with 0.1% HCl (v/v) and quantified at 600 nm on a Molecular Devices EMax (Molecular Devices, CA, USA). […]

[2] = system: CCD-34Lu normal lung fibroblasts; experiment: Cell viability by methylene blue colorimetric assay, normal cells CCD-34Lu; type: cell-based; conditions: Homo sapiens, Fibroblast; methylene blue assay (FIG. 1B); read-out: GI50, growth of normal cells CCD-34Lu
Protocol: as §2

[3] = system: WI-38 normal lung fibroblasts; experiment: Cell viability by methylene blue colorimetric assay, normal cells WI-38; type: cell-based; conditions: Homo sapiens, methylene blue assay (FIG. 1B), read-out: GI50, growth of normal cells WI-38
Protocol: as §2

HIF-1α activity = experiment: HRE-luciferase assay in HepG2 cells; type: cell-based; conditions: Homo sapiens; HepG2 cells (FIG. 2A)
Protocol: as §1, with “the presence of oxygen, when the proline residue of the oxygen-dependent degradation (ODD) domain of HIF-1α is hydroxylated by prolyl hydroxylase (PHD), HIF-1α degradation is promoted by binding to Von Hippel-Lindau syndrome (VHL) associated” for “HCT116 cells treated”, “VCB-Cul2 E3 ligase that induces proteolysis. […] First, HIF-1α” for “disubstituted adamantyl derivatives, luciferase”, “assay in HepG2 cells treated with LW1564 (compound 21-3).” for “assay.”, “la” for “1α”

HIF-1α mRNA = experiment: qPCR of HIF-1α mRNA; type: cell-based, human; conditions: qPCR (FIG. 2C)
Source text: In addition, the amount of HIF-1α mRNA in LW1564-treated cells was investigated by a qPCR method. Total RNA was isolated using TRIzol reagent (Invitrogen), and cDNA was synthesized using TOPscript™ DryMIX (Enzynomics, Seoul, Korea). The HIF1A primer sequences are Fwd 5′-CTGACCCTGCACTCAATCAAG-3′ and Rev 5′-TGGGACTATTAGGCTCAGGTG-3.

HIF-1α = HIF-1α protein accumulation in other cancer cell lines under hypoxia; type: cell-based, human; conditions: A549, WiDr, MIA-CaCa2 and HCT116 (FIG. 2D)
lipid synthesis = experiment: Nile red staining of lipid accumulation in HepG2 cells; type: cell-based, human; conditions: 24 hours (FIG. 5B)
Protocol: In order to explore this possibility, the effect of LW1564 (compounds 21-3) on lipid synthesis using Nile red, a fluorescent probe that binds to hydrophobic molecules such as lipid droplets was evaluated. Nile red staining was performed as described in “1. Huang, D. et al. HIF-1-mediated suppression of acyl-CoA dehydrogenases and fatty acid oxidation is critical for cancer progression. Cell Rep. 8, 1930-1942 (2014).” HepG2 cells were treated with LW1564 (compound 21-3) for 24 hours and then stained with 200 nM Nile Red and 1 μM Calcein AM for 10 minutes. Data were collected and analyzed with an IncuCyte ZOOM® system (Essen BioScience). For normalization, cell viability was measured using a cell-permeant fluorescent dye, Calcein AM.

- pIC50 [1]: 5.96
- GI50 (various cancer cells): 0.4 to 4.6 µM
- pIC50 (HIF-1α activity): 5.92
Structure (SMILES): COc1cc2c(cc1OC)CN(C(=O)C13CC4CC(C1)CC(c1ccc(OCC(=O)N5CCN(Cc6ccc(C(F)(F)F)cc6)CC5)cc1)(C4)C3)CC2 [Compound 21c, 2-(4-(3-(6,7-Dimethoxy-1,2,3,4-tetrahydroisoquinoline-2-carbonyl)adamantan-1-yl)phenoxy)-1-(4-(4-(trifluoromethyl)benzyl)piperazin-1-yl) ethanone]
- GI50 [2]: > 20 µM
- GI50 [3]: > 20 µM
- amount of HIF-1α mRNA (HIF-1α mRNA): no change in the amount of HIF-1α mRNA
- HIF-1α protein accumulation in various cancer cell lines (HIF-1α): significantly reduced HIF-1α protein accumulation
- lipid accumulation (Nile red) (lipid synthesis): reduced lipid accumulation in a concentration-dependent manner
